IC50 data for 58 compounds are collected here from PubChem BioAssay AID1645863 (Buhrlage Lab, Dana-Farber Cancer Institute and Novartis …, 2021).

Activity calls are given as the source filed them. The rule behind the calls is not given here.

For this assay, the target named is Ubiquitin carboxyl-terminal hydrolase 10 (Homo sapiens) (UniProt Q14694). Nature of the assay: ubiquitin-specific protease 10 DUB inhibitors, concentration-effect, biochemical, verification of primary screen actives (AID 1645863).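 Note: potency values describe inhibition of USP10 cleavage of a fluorogenic ubiquitin substrate.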 As to conditions: USP10 deubiquitinase enzymatic assay.
Chain of Ubiquitin carboxyl-terminal hydrolase 10 (Homo sapiens) (Q14694 whole entry, looked up): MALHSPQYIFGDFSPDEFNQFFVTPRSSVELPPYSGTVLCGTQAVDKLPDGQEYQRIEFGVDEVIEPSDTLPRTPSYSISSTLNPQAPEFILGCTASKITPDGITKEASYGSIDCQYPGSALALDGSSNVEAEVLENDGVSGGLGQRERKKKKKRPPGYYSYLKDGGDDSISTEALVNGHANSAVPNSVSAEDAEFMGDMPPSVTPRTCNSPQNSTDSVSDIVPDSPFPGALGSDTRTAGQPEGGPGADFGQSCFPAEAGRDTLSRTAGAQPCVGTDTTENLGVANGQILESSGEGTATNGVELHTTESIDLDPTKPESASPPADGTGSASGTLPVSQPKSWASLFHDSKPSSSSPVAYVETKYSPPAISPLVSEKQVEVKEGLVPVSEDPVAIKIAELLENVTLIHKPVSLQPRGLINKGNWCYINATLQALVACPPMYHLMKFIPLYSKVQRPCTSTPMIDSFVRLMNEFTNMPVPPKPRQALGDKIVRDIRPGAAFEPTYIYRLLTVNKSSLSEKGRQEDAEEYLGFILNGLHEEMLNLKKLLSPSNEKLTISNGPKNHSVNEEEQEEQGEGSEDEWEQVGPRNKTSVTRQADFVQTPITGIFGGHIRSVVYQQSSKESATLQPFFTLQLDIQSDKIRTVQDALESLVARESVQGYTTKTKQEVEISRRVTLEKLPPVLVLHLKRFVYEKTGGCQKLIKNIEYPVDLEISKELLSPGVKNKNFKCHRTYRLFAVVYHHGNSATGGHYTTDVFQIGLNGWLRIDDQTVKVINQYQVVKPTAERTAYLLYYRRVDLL
For the compound `Cc1cccc(NC(=O)Cn2c(=O)n(-c3cc(C)cc(C)c3)c(=O)c3sccc32)c1`, the IC50 was > 40 µM (inactive).

For `O=C(CCCc1nnc2c(=O)n(-c3cccc(F)c3)ccn12)NCc1ccc(Cl)cc1`, the half-inhibitory concentration (IC50) is 18.2 µM.

For `COc1ccc(C2NC(=O)NC(C)=C2C(=O)OCC2CCCCC2)cc1OC` (stereo not drawn), the IC50 is > 40 µM (inactive).

On to `O=C(CCc1ccc(S(=O)(=O)N2CCOCC2)cc1)OCC(=O)c1ccc(-c2ccccc2)cc1`, for which the half-maximal inhibitory concentration (IC50) is 38.8 µM.

For the compound `CCOC(=O)c1cc2c(ccn2-c2ccc(F)cc2)n1CC(=O)Nc1ccc2c(c1)OCCO2`, the IC50 is 30.3 µM.

Turning to `Nc1c(-c2ccc(Cl)cc2)cnc2cc(-c3ccc(Cl)c(Cl)c3)nn12`, the IC50 was > 40 µM (inactive).

Turning to `Cc1nc2nc(C(c3ccccc3)c3ccccc3)[nH]n2c(=O)c1Cc1ccccc1`, the IC50 is > 40 µM (inactive).

For `C[C@H](Cc1cc2c(cc1O)OCO2)[C@@H](C)Cc1cc2c(cc1O)OCO2`, the IC50 was 19.6 µM.

For the compound `O=C(CSc1nnc2c3ccccc3nc(-c3ccco3)n12)N1CCCc2ccccc21`, the IC50 was 3.82 µM.

For `CN1c2ccccc2C(=O)NC12CCN(C(=O)NCc1ccccc1)CC2`, the IC50 was > 40 µM (inactive).

Consider `Cc1ccc2c(c1)N=C(c1ccc([N+](=O)[O-])cc1)CO2`, for which the IC50 is > 40 µM (inactive).

Regarding `C[C@H](NC(=O)Cc1ccccc1F)c1nc2cc(-c3ccccc3F)ncn2n1`, the IC50 is 36.4 µM.

Regarding `COc1ccc2c(c1)CCc1c-2n[nH]c1C(=O)Nc1cc(C)on1`, the IC50 is > 40 µM (inactive).

As to `Cn1c2ccccc2c(=O)c2c(=O)n(Cc3ccco3)c(-c3ccccc3F)nc21`, the half-maximal inhibitory concentration (IC50) is 8.37 µM.

Regarding `O=C(Cn1c(=O)n(CC2CCC(C(=O)NCCc3ccccc3)CC2)c(=O)c2ccccc21)NCc1ccco1` (stereo not drawn), the IC50 was 22.7 µM.

In the case of `COc1ccc(-c2ccc(SCC(=O)Nc3ccc(F)cc3)nn2)cc1OC`, the IC50 was > 40 µM (inactive).

As for `Cc1noc(-c2cc(=O)n(CC(=O)Nc3ccccc3Cl)c3ccccc23)n1`, the IC50 was 14.4 µM.

On to `COc1cc(O)c2c(O)c3c(cc2c1)C[C@@]1(O)CC(=O)C(C(N)=O)=C(O)[C@@]1(O)C3=O`, for which the IC50 is 7.47 µM.

`CCOC(=O)N1CCN(C(=O)c2ccc(NCc3ccc(F)cc3)c(S(=O)(=O)Nc3cccc(C(F)(F)F)c3)c2)CC1`: the 50% inhibitory concentration (IC50) is 29.8 µM.

Consider `CCOc1ccccc1NC(=O)Cn1c(=O)n(CCCC(=O)NCc2ccc(C)cc2)c(=O)c2sccc21`, for which the IC50 was > 40 µM (inactive).

For the compound `Cc1ccc(C(=O)NCc2ccc(C(=O)Nc3ccc(Cl)cc3)o2)cc1`, the IC50 is > 40 µM (inactive).

Consider `O=C(c1ccc2c(c1)OCO2)[C@@H]1[C@H](C(=O)OC(c2ccccc2)c2ccccc2)N2c3ccccc3C=CC2[C@@]12C(=O)Nc1ccccc12` (stereo partly drawn), for which the IC50 is > 40 µM (inactive).

Turning to `CCOc1ccc(C2SCC(=O)Nc3c2c(=O)[nH]n3C2CCCCC2)cc1` (stereo not drawn), the IC50 is > 40 µM (inactive).

For the compound `O=C1NC(=O)/C(=C/c2ccc(OC(=O)c3ccc(Cl)cc3Cl)cc2)N1`, the half-inhibitory concentration (IC50) was 22.1 µM.

As to `COc1ccc(COc2ccc3c(C)c(CC(=O)N4CC[C@@]5(O)CCCC[C@H]5C4)c(=O)oc3c2)cc1`, the IC50 is > 40 µM (inactive).

Consider `CCc1cccc(C)c1NC(=O)Cn1nc2ccc(C(=O)NCc3ccccc3)cn2c1=O`, for which the IC50 was 29.3 µM.

As for `O=C(/C=C/c1ccc(Br)cc1)Nc1cnc2ccccc2c1`, the IC50 was 39.5 µM.

For `COc1ccc(-c2c(NC(=O)C3COc4ccccc4O3)n[nH]c2C)cc1OC` (stereo not drawn), the IC50 is > 40 µM (inactive).

Take `O=C(Cn1c(COc2ccccc2)nc2ccccc21)Nc1ccc(N2CCOCC2)cc1`: the IC50 was > 40 µM (inactive).

As to `CC(NC(=O)c1ccccc1)c1nc2ccccc2n1CC(=O)Nc1ccc(C#N)cc1` (stereo not drawn), the IC50 is 13.2 µM.

On to `O=C(Cn1c(COc2ccccc2)nc2ccccc21)Nc1cc(Cl)ccc1Cl`, for which the IC50 is > 40 µM (inactive).

As for `Cc1cccc(N2C(=O)/C(=C\c3ccc4c(c3)OCCO4)c3ccccc3C2=O)c1`, the IC50 was > 40 µM (inactive).

As for `Cn1cc(C(=O)NCC2COc3ccccc3O2)c(=O)c2cc(S(=O)(=O)N3CCCCC3)ccc21` (stereo not drawn), the IC50 is > 40 µM (inactive).

With `Cc1ccc(NC(=O)Nc2ccc(C)n(CC(=O)Nc3cccc(C)c3)c2=O)cc1`, the IC50 was > 40 µM (inactive).

On to `O=C(Cn1ncc2c(=O)oc3ccccc3c21)NCc1ccc2c(c1)OCO2`, for which the IC50 was > 40 µM (inactive).

Consider `CCOc1cccc(-c2noc(-c3nn(-c4ccccc4)ccc3=O)n2)c1`, for which the IC50 was > 40 µM (inactive).

Regarding `Cc1ccc(N2CC(C(=O)Nc3cccc(-c4noc(C)n4)c3)CC2=O)cc1` (stereo not drawn), the IC50 was > 40 µM (inactive).

For `CCc1nnc(-c2ccc3ccn(CC(=O)N4CCN(c5ccccn5)CC4)c3c2)o1`, the IC50 was > 40 µM (inactive).

`Cc1nn(-c2ccccc2)c2c1nc(CCC(=O)NC1CCCCC1)c(=O)n2C`: the IC50 is > 40 µM (inactive).

For `O=C(Cn1c(=O)n(Cc2ccc3c(c2)OCO3)c(=O)c2cccnc21)Nc1ccc(F)cc1`, the IC50 is > 40 µM (inactive).

For `CCCn1c(=O)c2sccc2n2c(CCC(=O)N3CCc4ccccc4C3)nnc12`, the IC50 was > 40 µM (inactive).

As for `CCn1cc2c(n1)c(=O)n(Cc1ccccc1)c(=O)n2CC(=O)NCc1ccc(C)cc1`, the IC50 was > 40 µM (inactive).

As for `COc1ccc2cc(C(=O)N3CCC(C(C)C(=O)NCc4cccc(F)c4)CC3)[nH]c2c1` (stereo not drawn), the IC50 was 38 µM.

For the compound `O=C(NCc1ccco1)c1ccc(Cn2c(=O)c3sccc3n(Cc3cc(=O)n4ccccc4n3)c2=O)cc1`, the IC50 was > 40 µM (inactive).

On to `N#Cc1ccc(NC(=O)Nc2cccn(Cc3c(F)cccc3Cl)c2=O)cc1`, for which the IC50 was > 40 µM (inactive).

In the case of `CSc1nc2ncn(CC(=O)Nc3ccc(Br)cc3)c(=O)c2s1`, the IC50 was > 40 µM (inactive).

On to `COc1ccc(-c2cc(C(=O)Nc3ccnn3Cc3ccccc3)no2)cc1`, for which the IC50 is > 40 µM (inactive).

As for `Cc1nc2c(c(C)c1CCC(=O)Nc1ccccc1F)c(=O)n(C)c(=O)n2C`, the IC50 was > 40 µM (inactive).

`O=C(CCCCn1c(=O)c2ccccc2n(CC(=O)Nc2ccc3c(c2)OCCO3)c1=O)NCc1ccco1`: the half-maximal inhibitory concentration (IC50) is 25.2 µM.

Regarding `COc1cccc(C2c3[nH]c4ccccc4c3C[C@@H]3C(=O)N(CC(O)c4ccccc4)CC(=O)N23)c1` (stereo partly drawn), the IC50 was > 40 µM (inactive).

Take `COc1ccc(/C=C/C(=O)Nc2ccc3nc(N4CCN(c5ncccn5)CC4)cc(C)c3c2)cc1`: the IC50 is > 40 µM (inactive).

`CC(C)=CCc1c2c(c3occ(-c4ccc(O)c(O)c4)c(=O)c3c1O)C=CC(C)(C)O2`: the IC50 was 6.37 µM.

As for `Cc1cc(NC(=O)Cn2c(=O)n(CCCCC(=O)NCc3ccco3)c(=O)c3ccccc32)ccc1Br`, the IC50 was 14.6 µM.

Regarding `Cc1ccc(NC(=O)COc2ccccc2/C=C2/NC(=O)N(Cc3ccc(F)cc3)C2=O)cc1`, the IC50 is > 40 µM (inactive).

In the case of `COc1ccc(C(=O)C(C)OC(=O)c2cccc(S(=O)(=O)Nc3cc([N+](=O)[O-])ccc3OC)c2)c(OC)c1` (stereo not drawn), the IC50 is > 40 µM (inactive).

`O=C(CCc1ccc(F)cc1)N1CCOC(CCc2cc(=O)[nH]cn2)C1` (stereo not drawn): the IC50 was > 40 µM (inactive).

For the compound `CSc1ncccc1C(=O)NC1(O)C(=O)c2ccccc2C1=O`, the IC50 is 9.86 µM.

In the case of `COc1ccc(C(=O)Nc2nc(-c3ccc4c(c3)NC(=O)CO4)c(C)s2)cc1OC`, the IC50 was > 40 µM (inactive).

As a reminder, the IC50 is the midpoint of a concentration-inhibition curve.
